# Reference: patent publication US20060069132A1, “Azolecarboxamide herbicides” (priority 2004, published 2006)
# Assays:
# pigweed = experiment: Test B pre-/postemergence herbicide test; assay type: in vivo, Amaranthus retroflexus; conditions: for Plant response rating (0 to 100 scale), Pigweed: 0 is no effect, 100 is complete control, preemergence
# Procedure, shortened: (§1)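 Visual rating, 0 (no effect) to 100 (complete control), versus untreated controls after 13–15 d in greenhouse. Pre- and postemergence applications (postemergence plants 2–18 cm, 1–4 leaves); flooded paddy arm at 2-leaf stage. Compounds in non-phytotoxic solvent plus surfactant.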
# corn = experiment: Test B pre-/postemergence herbicide test; assay type: in vivo, Zea mays; conditions: for Plant response rating (0 to 100 scale), Corn: 0 is no effect, 100 is complete control, preemergence
# Procedure, shortened: as §1
# wheat = experiment: Test B postemergence herbicide test; assay type: in vivo, Triticum aestivum; design: key to Wheat plant response rating: 0 = no effect, 100 = complete control
# Procedure, shortened: (§2)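 Scale 0–100: zero equals no visible effect, 100 complete control, judged by eye relative to controls. Timing: 13 to 15 days in greenhouse post-treatment. Growth stage at spraying: two leaves (paddy) or one to four leaves, 2–18 cm (postemergence).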
# ducksalad = experiment: Test B flooded paddy test; assay type: in vivo, Heteranthera limosa; conditions: 1000 g ai/ha, scale 0 to 100 (0 no effect, 100 complete control)
# Procedure, shortened: as §2
# large crabgrass = experiment: Test B pre-/postemergence herbicide test; assay type: in vivo, Digitaria sanguinalis; conditions: for Plant response rating (0 to 100 scale), Crabgrass, Large: 0 is no effect, 100 is complete control, preemergence
# Procedure, shortened: as §1
# velvetleaf = experiment: Test B pre-/postemergence herbicide test; assay type: in vivo, Abutilon theophrasti; conditions: for Plant response rating (0 to 100 scale), Velvetleaf: 0 is no effect, 100 is complete control, preemergence
# Procedure, shortened: as §1
# wild oat = experiment: Test B postemergence herbicide test; assay type: in vivo, Avena fatua
# Procedure, shortened: as §2
# blackgrass = experiment: Test B postemergence herbicide test; assay type: in vivo, Alopecurus myosuroides
# Procedure, shortened: as §2
# rice = experiment: Test B flooded paddy test; assay type: in vivo, Oryza sativa; conditions: 1000 g ai/ha, scale 0 to 100 (0 no effect, 100 complete control)
# Procedure, shortened: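 Read-out: visual comparison with controls, scored 0 to 100, where 100 means complete control and 0 no effect. Formulated chemicals were applied postemergence to plants 2–18 cm tall (1- to 4-leaf), or to flooded-paddy plants at the 2-leaf stage, then held 13 to 15 days under glass.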
# [1] = tested on: small flower umbrella sedge; experiment: Test B flooded paddy test; assay type: in vivo, Cyperus difformis; conditions: 1000 g ai/ha, scale 0 to 100 (0 no effect, 100 complete control)
# Procedure, shortened: as §2
# morningglory = experiment: Test B pre-/postemergence herbicide test; assay type: in vivo, Ipomoea coccinea; conditions: for Plant response rating (0 to 100 scale), Morningglory: 0 is no effect, 100 is complete control, preemergence
# Procedure, shortened: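 Formulation: non-phytotoxic solvent mix with surfactant. Timing: preemergence on seed and postemergence on 2–18 cm plants, applied concurrently. Readout after 13–15 d greenhouse: visual 0–100 control rating against controls.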
# barnyardgrass = experiment: Test B flooded paddy test; assay type: in vivo, Echinochloa crus-galli; conditions: 1000 g ai/ha, scale 0 to 100 (0 no effect, 100 complete control)
# Procedure, shortened: as §2
# Surinam grass = experiment: Test B pre-/postemergence herbicide test; assay type: in vivo, Urochloa decumbens; conditions: for Plant response rating (0 to 100 scale), Surinam Grass: 0 is no effect, 100 is complete control, preemergence
# Procedure, shortened: as §1
# lambsquarters = experiment: Test B pre-/postemergence herbicide test; assay type: in vivo, Chenopodium album; conditions: for Plant response rating (0 to 100 scale), Lambsquarters: 0 is no effect, 100 is complete control, preemergence
# Procedure, shortened: as §1
# giant foxtail = experiment: Test B pre-/postemergence herbicide test; assay type: in vivo, Setaria faberi; conditions: for Plant response rating (0 to 100 scale), Foxtail, Giant: 0 is no effect, 100 is complete control, preemergence
# Procedure, shortened: as §1
# [2] = Postemergence, 500 g ai/ha, scale 0 (no effect) to 100 (complete control)
# [3] = postemergence, 125 g ai/ha, scale 0 to 100
# [4] = 500 g ai/ha, scale 0 to 100, 0 no effect, 100 complete control, preemergence
Compound,"Plant response rating (0 to 100 scale), Pigweed (pigweed; 125 g ai/ha)",Pigweed plant response rating (pigweed; [2]),Pigweed plant response rating (pigweed; [3]),"Plant response rating (0 to 100 scale), Corn (corn; 125 g ai/ha)",Corn plant response rating (corn; [2]),Corn plant response rating (corn; [3]),Wheat plant response rating (wheat; [4]),Wheat plant response rating (wheat; [2]),Wheat plant response rating (wheat; [3]),Ducksalad plant response rating (ducksalad),"Plant response rating (0 to 100 scale), Crabgrass, Large (large crabgrass; 125 g ai/ha)","Crabgrass, Large plant response rating (large crabgrass; [2])","Crabgrass, Large plant response rating (large crabgrass; [3])","Plant response rating (0 to 100 scale), Velvetleaf (velvetleaf; 125 g ai/ha)",Velvetleaf plant response rating (velvetleaf; [2]),Velvetleaf plant response rating (velvetleaf; [3]),"Oat, Wild plant response rating (wild oat; [2])","Oat, Wild plant response rating (wild oat; [3])",Blackgrass plant response rating (blackgrass; [2]),Blackgrass plant response rating (blackgrass; [3]),further results
Cc1nn(C(C)(C)C)nc1C(=O)Nc1cccc(C(=S)N(C)C)c1 [Compound 419],100,80,60,70,30,20,100,20,10,70,100,40,30,70,50,20,20,0,30,10,"Rice plant response rating (rice): 80; Sedge, Umbrella plant response rating [1]: 80; Plant response rating (0 to 100 scale), Morningglory (morningglory; 125 g ai/ha): 50; Morningglory plant response rating (morningglory; [2]): 90; Morningglory plant response rating (morningglory; [3]): 80; Barnyardgrass plant response rating (barnyardgrass): 90; Plant response rating (0 to 100 scale), Surinam Grass (Surinam grass; 125 g ai/ha): 90; Surinam Grass plant response rating (Surinam grass; [2]): 30; Surinam Grass plant response rating (Surinam grass; [3]): 20; Plant response rating (0 to 100 scale), Lambsquarters (lambsquarters; 125 g ai/ha): 100; Lambsquarters plant response rating (lambsquarters; [2]): 90; Lambsquarters plant response rating (lambsquarters; [3]): 70; Plant response rating (0 to 100 scale), Foxtail, Giant (giant foxtail; 125 g ai/ha): 90; Foxtail, Giant plant response rating (giant foxtail; [2]): 30; Foxtail, Giant plant response rating (giant foxtail; [3]): 30"
CCNC(=S)c1cccc(NC(=O)c2nn(C(C)(C)C)nc2C)c1 [Compound 420],100,70,60,70,20,20,100,20,10,80,100,40,30,50,30,20,30,20,40,10,"Rice plant response rating (rice): 60; Sedge, Umbrella plant response rating [1]: 70; Plant response rating (0 to 100 scale), Morningglory (morningglory; 125 g ai/ha): 50; Morningglory plant response rating (morningglory; [2]): 90; Morningglory plant response rating (morningglory; [3]): 80; Barnyardgrass plant response rating (barnyardgrass): 90; Plant response rating (0 to 100 scale), Surinam Grass (Surinam grass; 125 g ai/ha): 70; Surinam Grass plant response rating (Surinam grass; [2]): 30; Surinam Grass plant response rating (Surinam grass; [3]): 20; Plant response rating (0 to 100 scale), Lambsquarters (lambsquarters; 125 g ai/ha): 100; Lambsquarters plant response rating (lambsquarters; [2]): 90; Lambsquarters plant response rating (lambsquarters; [3]): 70; Plant response rating (0 to 100 scale), Foxtail, Giant (giant foxtail; 125 g ai/ha): 80; Foxtail, Giant plant response rating (giant foxtail; [2]): 30; Foxtail, Giant plant response rating (giant foxtail; [3]): 20"
